Results as given in PubChem BioAssay (NCI).
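Abbreviation: GI50, concentration required for 50% inhibition of growth. TGI denotes the concentration required for complete inhibition of growth.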

Experiments:
Assay in all cases: DTP human tumour cell line panel, 384-well format
SN12C renal = system: SN12C renal
NCI-H460 NSCLC = system: NCI-H460 NSCLC
IGROV1 ovarian = system: IGROV1 ovarian
NCI/ADR-RES ovarian = system: NCI/ADR-RES ovarian
A498 renal = system: A498 renal
SK-MEL-28 melanoma = system: SK-MEL-28 melanoma
MOLT-4 leukemia = system: MOLT-4 leukemia
BT-549 breast = system: BT-549 breast
HCC-2998 colon = system: HCC-2998 colon
MCF7 breast = system: MCF7 breast
CAKI-1 renal = system: CAKI-1 renal
OVCAR-3 ovarian = system: OVCAR-3 ovarian
HCT-116 colon = system: HCT-116 colon
786-0 renal = system: 786-0 renal
UACC-257 melanoma = system: UACC-257 melanoma
LOX IMVI melanoma = system: LOX IMVI melanoma
ACHN renal = system: ACHN renal
RPMI-8226 leukemia = system: RPMI-8226 leukemia
DU-145 prostate = system: DU-145 prostate
SW-620 colon = system: SW-620 colon
NCI-H522 lung = system: NCI-H522 lung
UACC-62 melanoma = system: UACC-62 melanoma
M14 melanoma = system: M14 melanoma
COLO 205 colon = system: COLO 205 colon
HCT-15 colon = system: HCT-15 colon
SF-295 CNS = system: SF-295 CNS
TK-10 renal = system: TK-10 renal
NCI-H226 lung = system: NCI-H226 lung
HS 578T breast = system: HS 578T breast
NCI-H23 lung = system: NCI-H23 lung
RXF 393 renal = system: RXF 393 renal
NCI-H322M lung = system: NCI-H322M lung
OVCAR-4 ovarian = system: OVCAR-4 ovarian
SK-MEL-5 melanoma = system: SK-MEL-5 melanoma
SK-OV-3 ovarian = system: SK-OV-3 ovarian
CCRF-CEM leukemia = system: CCRF-CEM leukemia
K-562 leukemia = system: K-562 leukemia
HT29 colon = system: HT29 colon
OVCAR-5 ovarian = system: OVCAR-5 ovarian
EKVX NSCLC = system: EKVX NSCLC
SF-539 CNS = system: SF-539 CNS
MALME-3M melanoma = system: MALME-3M melanoma
HL-60(TB) leukemia = system: HL-60(TB) leukemia
SR leukemia = system: SR leukemia
SF-268 CNS = system: SF-268 CNS
MDA-MB-435 melanoma = system: MDA-MB-435 melanoma
SNB-19 CNS = system: SNB-19 CNS
KM12 colon = system: KM12 colon
PC-3 prostate = system: PC-3 prostate
MDA-MB-231 breast = system: MDA-MB-231 breast
MDA-MB-468 breast = system: MDA-MB-468 breast
T-47D breast = system: T-47D breast
HOP-62 NSCLC = system: HOP-62 NSCLC
SK-MEL-2 melanoma = system: SK-MEL-2 melanoma
A549 NSCLC = system: A549 NSCLC
U251 glioblastoma = system: U251 glioblastoma
OVCAR-8 ovarian = system: OVCAR-8 ovarian
HOP-92 NSCLC = system: HOP-92 NSCLC
SNB-75 CNS = system: SNB-75 CNS
UO-31 renal = system: UO-31 renal

CC(=O)Nc1cccc(-n2c(=O)n(C3CC3)c(=O)c3c(Nc4ccc(I)cc4F)n(C)c(=O)c(C)c32)c1
GI50 (SN12C renal): 537 nM
TGI (SN12C renal): 46.4 µM
GI50 (NCI-H460 NSCLC): 3.88 µM
TGI (NCI-H460 NSCLC): > 40.9 µM
GI50 (IGROV1 ovarian): < 10 nM
TGI (IGROV1 ovarian): 5.48 µM
GI50 (NCI/ADR-RES ovarian): 1320 nM
TGI (NCI/ADR-RES ovarian): 8.35 µM
GI50 (A498 renal): 80 nM
TGI (A498 renal): 4.52 µM
GI50 (SK-MEL-28 melanoma): < 10 nM
TGI (SK-MEL-28 melanoma): < 10 nM
GI50 (MOLT-4 leukemia): 3.11 µM
TGI (MOLT-4 leukemia): 12.3 µM
GI50 (BT-549 breast): 846 nM
TGI (BT-549 breast): 18.3 µM
GI50 (HCC-2998 colon): < 10 nM
TGI (HCC-2998 colon): < 11.9 nM
GI50 (MCF7 breast): 7.68 µM
TGI (MCF7 breast): 23.6 µM
GI50 (CAKI-1 renal): < 26 nM
TGI (CAKI-1 renal): 12 µM
GI50 (OVCAR-3 ovarian): 4.65 µM
TGI (OVCAR-3 ovarian): 21.4 µM
GI50 (HCT-116 colon): < 10 nM
TGI (HCT-116 colon): 78.7 nM
GI50 ([…]-0 renal): 1200 nM
TGI (786-0 renal): 20.1 µM
GI50 (UACC-257 melanoma): < 10 nM
TGI (UACC-257 melanoma): < 10 nM
GI50 (LOX IMVI melanoma): < 10 nM
TGI (LOX IMVI melanoma): 44.3 nM
GI50 (ACHN renal): 576 nM
TGI (ACHN renal): 20.4 µM
GI50 (RPMI-8226 leukemia): 423 nM
TGI (RPMI-8226 leukemia): 4.84 µM
GI50 (DU-145 prostate): 1960 nM
TGI (DU-145 prostate): 44.4 µM
GI50 (SW-620 colon): < 10 nM
TGI (SW-620 colon): > 36 µM
GI50 (NCI-H522 lung): 4.33 µM
TGI (NCI-H522 lung): 37.4 µM
GI50 (UACC-62 melanoma): < 10 nM
GI50 (M14 melanoma): < 10 nM
TGI (M14 melanoma): < 10 nM
GI50 (COLO 205 colon): < 10 nM
TGI (COLO 205 colon): < 10.6 nM
GI50 (HCT-15 colon): 238 nM
TGI (HCT-15 colon): 14.7 µM
GI50 (SF-295 CNS): 23.1 µM
TGI (SF-295 CNS): > 86.2 µM
TGI (TK-10 renal): > 45.6 µM
GI50 (NCI-H226 lung): < 43.2 nM
TGI (NCI-H226 lung): 8.93 µM
GI50 (HS 578T breast): 1500 nM
TGI (HS 578T breast): 24.9 µM
GI50 (NCI-H23 lung): < 10 nM
TGI (NCI-H23 lung): 137 nM
TGI (RXF 393 renal): 1440 nM
GI50 (NCI-H322M lung): < 23.7 nM
TGI (NCI-H322M lung): 3.6 µM
GI50 (OVCAR-4 ovarian): 4.87 µM
TGI (OVCAR-4 ovarian): 26.9 µM
GI50 (SK-MEL-5 melanoma): < 10 nM
TGI (SK-MEL-5 melanoma): < 10 nM
TGI (SK-OV-3 ovarian): > 41.1 µM
GI50 (CCRF-CEM leukemia): 3.32 µM
TGI (CCRF-CEM leukemia): 12.8 µM
GI50 (K-562 leukemia): 26.5 nM
TGI (K-562 leukemia): 11.8 µM
GI50 (HT29 colon): < 10 nM
TGI (HT29 colon): 15 µM
GI50 (OVCAR-5 ovarian): < 10 nM
TGI (OVCAR-5 ovarian): 25.5 µM
GI50 (EKVX NSCLC): 309 nM
TGI (EKVX NSCLC): 23.7 µM
GI50 (SF-539 CNS): 81.9 nM
TGI (SF-539 CNS): 11 µM
GI50 (MALME-3M melanoma): < 10 nM
TGI (MALME-3M melanoma): < 10 nM
GI50 (HL-60(TB) leukemia): < 10 nM
TGI (HL-60(TB) leukemia): < 10 nM
GI50 (SR leukemia): 1100 nM
TGI (SR leukemia): 5.65 µM
GI50 (SF-268 CNS): 7.21 µM
TGI (SF-268 CNS): > 56.4 µM
GI50 (MDA-MB-435 melanoma): < 10 nM
TGI (MDA-MB-435 melanoma): 16.5 µM
TGI (SNB-19 CNS): > 62.1 µM
GI50 (KM12 colon): < 10 nM
TGI (KM12 colon): 26.1 µM
GI50 (PC-3 prostate): > 35.7 µM
TGI (PC-3 prostate): > 59.5 µM
GI50 (MDA-MB-231 breast): < 48.9 nM
TGI (MDA-MB-231 breast): 1990 nM
GI50 (MDA-MB-468 breast): 5.03 µM
TGI (MDA-MB-468 breast): 14.2 µM
GI50 (T-47D breast): > 25.1 µM
TGI (T-47D breast): > 100 µM
GI50 (HOP-62 NSCLC): < 11.3 nM
TGI (HOP-62 NSCLC): 21.2 µM
GI50 (SK-MEL-2 melanoma): < 10 nM
TGI (SK-MEL-2 melanoma): < 10 nM
GI50 (A549 NSCLC): 10.3 nM
TGI (A549 NSCLC): 4.68 µM
GI50 (U251 glioblastoma): 76 nM
TGI (U251 glioblastoma): 23.2 µM
GI50 (OVCAR-8 ovarian): 2880 nM
TGI (OVCAR-8 ovarian): 36.1 µM
GI50 (HOP-92 NSCLC): < 17.2 nM
TGI (HOP-92 NSCLC): 123 nM
GI50 (SNB-75 CNS): 115 nM
TGI (SNB-75 CNS): 5.76 µM
GI50 (UO-31 renal): 54.1 nM
TGI (UO-31 renal): 11.3 µM
